Source: ChEMBL document CHEMBL5226310, “Synthesis and Characterization of Novel Mono- and Bis-Guanyl Hydrazones as Potent and Selective ASIC1 Inhibitors Able to Reduce Brain Ischemic Insult” (J Med Chem, 2021)
pIC50: −log10 of the molar value. The source made the active and inactive calls. The calls are words filed in the database; no cut-off is given here.

Legend:
Mus musculus [1] = assay: Neuroprotective activity in mouse model of middle cerebral artery occlusion-induced transient brain ischemia assessed as decrease in ischemic volume at 0.6 mg/kg, ip administered thrice measured after 24 hrs (reference value: 58 +/- 2.6 %); assay type: functional; design: scale not given: the % may be the effect or the level left
Cortical neurone [2] = assay: Neuroprotective activity in OGD/Rx-induced E16 Wistar rat Primary cortical neurons assessed as increase in cell viability at 2.1 uM incubated for 3 hrs during OGD followed by reoxygenation with compound re-addition measured after 21 hrs by MTT assay; assay type: functional, cell-based; conditions: time 24.0 hrs
[3] = biological target: T1, Acid-sensing ion channel 2 (Mus musculus) (UniProt Q925H0); assay: Inhibition of mouse ASIC2a expressed in genetically engineered-CHO-K1 cells at 10 uM preincubated for 10 mins at pH 7.4 followed by cell stimulation with proton injection at pH 6.5 by electro-chromic fluorescence voltage sensor-based assay relative to control
T1 sequence (whole entry): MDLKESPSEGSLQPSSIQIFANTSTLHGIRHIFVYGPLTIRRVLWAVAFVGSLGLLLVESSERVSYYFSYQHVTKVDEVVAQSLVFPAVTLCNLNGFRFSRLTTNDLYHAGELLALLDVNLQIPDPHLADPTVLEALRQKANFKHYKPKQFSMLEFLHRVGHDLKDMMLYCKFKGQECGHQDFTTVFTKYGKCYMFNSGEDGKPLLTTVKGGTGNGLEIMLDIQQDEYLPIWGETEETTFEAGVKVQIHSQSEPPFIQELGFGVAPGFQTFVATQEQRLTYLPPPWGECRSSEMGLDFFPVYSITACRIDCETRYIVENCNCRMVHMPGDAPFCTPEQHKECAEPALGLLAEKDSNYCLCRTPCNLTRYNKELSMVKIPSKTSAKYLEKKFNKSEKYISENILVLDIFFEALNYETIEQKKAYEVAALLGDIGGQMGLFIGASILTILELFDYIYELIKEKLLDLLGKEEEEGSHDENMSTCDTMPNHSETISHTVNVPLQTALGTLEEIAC

Cortical neurone [4] = assay: Neuroprotective activity in OGD/Rx-induced E16 Wistar rat Primary cortical neurons assessed as increase in cell viability incubated for 3 hrs during OGD followed by reoxygenation with compound re-addition measured after 21 hrs by MTT assay; assay type: functional, cell-based; conditions: time 24.0 hrs
[5] = biological target: T2, Acid-sensing ion channel 1 (Mus musculus) (UniProt Q6NXK8); assay: Inhibition of mouse ASIC1a expressed in genetically engineered-CHO-K1 cells at 10 uM preincubated for 10 mins at pH 7.4 followed by cell stimulation with proton injection at pH 6.5 by electro-chromic fluorescence voltage sensor-based assay relative to control
T2 sequence (whole entry): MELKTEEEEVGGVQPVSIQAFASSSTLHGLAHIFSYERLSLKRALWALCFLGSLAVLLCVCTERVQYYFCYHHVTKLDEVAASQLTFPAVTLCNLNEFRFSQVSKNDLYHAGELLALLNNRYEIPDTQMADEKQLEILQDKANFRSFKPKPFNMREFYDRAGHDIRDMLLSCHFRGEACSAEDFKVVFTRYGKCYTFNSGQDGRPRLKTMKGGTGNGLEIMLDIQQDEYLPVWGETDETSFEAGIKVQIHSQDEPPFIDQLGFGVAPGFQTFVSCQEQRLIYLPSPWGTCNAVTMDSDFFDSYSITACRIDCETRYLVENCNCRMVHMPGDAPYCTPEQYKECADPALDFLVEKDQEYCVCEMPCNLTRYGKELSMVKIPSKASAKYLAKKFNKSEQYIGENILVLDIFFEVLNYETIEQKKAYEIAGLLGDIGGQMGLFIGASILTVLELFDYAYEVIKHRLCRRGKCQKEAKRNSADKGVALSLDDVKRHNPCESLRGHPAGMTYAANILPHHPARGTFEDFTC

Cortical neurone [6] = assay: Neuroprotective activity in OGD/Rx-induced E16 Wistar rat Primary cortical neurons assessed as increase in cell viability at 2.1 uM incubated for 3 hrs during OGD followed by compound removal and reoxygenation measured after 21 hrs by MTT assay; assay type: functional, cell-based
[7] = biological target: T3, Acid-sensing ion channel 1 (Homo sapiens, UniProt P78348); assay: Inhibition of human ASIC1a in HEK293 cells assessed as inward proton-gated current at pH 6.0 incubated with compound followed by PcTx1 addition by patch-clamp electrophysiology; assay type: cell-based
T3 sequence (P78348 whole entry): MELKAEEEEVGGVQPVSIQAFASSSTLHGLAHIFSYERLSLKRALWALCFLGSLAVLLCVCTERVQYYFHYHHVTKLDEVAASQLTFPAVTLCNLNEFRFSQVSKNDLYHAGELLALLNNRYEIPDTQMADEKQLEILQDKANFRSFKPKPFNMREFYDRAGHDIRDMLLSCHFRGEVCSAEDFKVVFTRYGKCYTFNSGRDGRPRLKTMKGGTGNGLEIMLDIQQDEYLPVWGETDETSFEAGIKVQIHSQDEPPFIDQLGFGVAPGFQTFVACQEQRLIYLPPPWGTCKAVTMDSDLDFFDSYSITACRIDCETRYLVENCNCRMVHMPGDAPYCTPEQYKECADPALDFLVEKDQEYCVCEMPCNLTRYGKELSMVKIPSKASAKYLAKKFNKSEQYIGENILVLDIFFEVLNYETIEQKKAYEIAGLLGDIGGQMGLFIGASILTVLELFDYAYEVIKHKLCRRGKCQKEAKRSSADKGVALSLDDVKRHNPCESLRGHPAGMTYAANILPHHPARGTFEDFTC

Cortical neurone [8] = assay: Neuroprotective activity in OGD/Rx-induced E16 Wistar rat Primary cortical neurons assessed as increase in cell viability at 1.4 uM incubated for 3 hrs during OGD followed by compound removal and reoxygenation measured after 21 hrs by MTT assay; assay type: functional, cell-based
Cortical neurone [9] = assay: Neuroprotective activity in OGD/Rx-induced E16 Wistar rat Primary cortical neurons assessed as increase in cell viability at 1.41 uM incubated for 3 hrs during OGD followed by reoxygenation with compound re-addition measured after 21 hrs by MTT assay; assay type: functional, cell-based; conditions: time 24.0 hrs
Cortical neurone [10] = assay: Neuroprotective activity in OGD/Rx-induced E16 Wistar rat Primary cortical neurons assessed as increase in cell viability at 3.14 uM incubated for 3 hrs during OGD followed by compound removal and reoxygenation measured after 21 hrs by MTT assay; assay type: functional, cell-based
Cortical neurone [11] = assay: Neuroprotective activity in OGD/Rx-induced E16 Wistar rat Primary cortical neurons assessed as increase in cell viability at 3.14 uM incubated for 3 hrs during OGD followed by reoxygenation with compound re-addition measured after 21 hrs by MTT assay; assay type: functional, cell-based; conditions: time 24.0 hrs
Mus musculus [12] = assay: Neuroprotective activity in mouse model of middle cerebral artery occlusion-induced transient brain ischemia assessed as decrease in ischemic volume at 0.8 mg/kg, ip administered thrice measured after 24 hrs (reference value: 58 +/- 2.6 %); assay type: functional; design: scale not given: the % may be the effect or the level left
Mus musculus [13] = assay: Neuroprotective activity in mouse model of middle cerebral artery occlusion-induced transient brain ischemia assessed as reduction in neurological deficits at 0.8 mg/kg, ip administered thrice measured after 24 hrs; assay type: functional, organism-based
Cortical neurone [14] = assay: Neuroprotective activity in OGD/Rx-induced E16 Wistar rat Primary cortical neurons assessed as increase in cell viability at 0.38 uM incubated for 3 hrs during OGD followed by reoxygenation with compound re-addition measured after 21 hrs by MTT assay; assay type: functional, cell-based; conditions: time 24.0 hrs
Cortical neurone [15] = assay: Neuroprotective activity in OGD/Rx-induced E16 Wistar rat Primary cortical neurons assessed as increase in cell viability at 0.13 uM incubated for 3 hrs during OGD followed by reoxygenation with compound re-addition measured after 21 hrs by MTT assay; assay type: functional, cell-based; conditions: time 24.0 hrs

| Structure (SMILES) | inhibition [3] | inhibition [5] | pIC50 [7] | Activity (Mus musculus [1]) | Activity (Cortical neurone [2]) | Activity (Cortical neurone [4]) | Activity (Cortical neurone [6]) | Activity (Cortical neurone [8]) | Activity (Cortical neurone [9]) | Activity (Cortical neurone [10]) | Activity (Cortical neurone [11]) | Activity (Mus musculus [12]) | Activity (Mus musculus [13]) | Activity (Cortical neurone [14]) | Activity (Cortical neurone [15]) |
| --- | --- | --- | --- | --- | --- | --- | --- | --- | --- | --- | --- | --- | --- | --- | --- |
| N=C(N)N/N=C/c1ccc(-c2cc(-c3ccc(Br)cc3)n[nH]2)cc1 | 86.2% | 24.6% | 5.70 | 44% | Active | Dose-Dependent Effect | Active | – | – | – | – | – | – | – | – |
| Cn1nc(-c2ccc(/C=N/NC(=N)N)cc2)cc1-c1ccc(/C=N/NC(=N)N)cc1 | 43.9% | 33.1% | 5.85 | – | – | – | – | Active | Active | – | – | – | – | – | – |
| Cn1nc(-c2ccc(F)cc2)cc1-c1ccc(/C=N/NC(=N)N)cc1 | 96.6% | 16.8% | 5.50 | – | – | – | – | – | – | Active | Active | – | – | – | – |

Continued, in another order:

| inhibition [3] | inhibition [5] | pIC50 [7] | Structure (SMILES) | Activity (Mus musculus [1]) | Activity (Cortical neurone [2]) | Activity (Cortical neurone [4]) | Activity (Cortical neurone [6]) | Activity (Cortical neurone [8]) | Activity (Cortical neurone [9]) | Activity (Cortical neurone [10]) | Activity (Cortical neurone [11]) | Activity (Mus musculus [12]) | Activity (Mus musculus [13]) | Activity (Cortical neurone [14]) | Activity (Cortical neurone [15]) |
| --- | --- | --- | --- | --- | --- | --- | --- | --- | --- | --- | --- | --- | --- | --- | --- |
| 61.3% | 9.09% | 6.14 | Cl.Cl.N=C(N)N/N=C\c1ccc(-c2cc(-c3ccc(/C=N\NC(=N)N)cc3)[nH]n2)cc1 | – | – | – | – | – | – | – | – | 40.9% | Active | Active | – |
| 50.6% | -3.26% | 6.01 | Br.Br.C(=N/NC1=NCCN1)/c1ccc(-c2cc(-c3ccc(/C=N/NC4=NCCN4)cc3)[nH]n2)cc1 | – | – | – | – | – | – | – | – | 40.9% | Active | – | Active |
